The values below come from US11753407B2, “Compounds for treating spinal muscular atrophy” (PTC Therapeutics, Inc., priority 2012, dated 2023).

For series [1], the system named is SMN2 minigene mRNA (SMN2-A minigene) in HEK293H cells. The series can be described thus: SMN2 minigene mRNA splicing RT-qPCR assay in cultured cells. It is filed as cell-based, human. The settings on record: Homo sapiens, HEK293-H; concentration increasing full length SMN2 mRNA 1.5-fold relative to vehicle-treated cells; HEK293H cells with SMN2-A minigene, 24 hours, 7-point concentration data; read-out: EC1.5x for production of full length SMN2 mRNA. The method in brief:
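HEK293H cells stably carrying SMN2-A minigene treated with compounds (7-point, 3.16-fold dilutions, duplicates) for 24 h at 37 °C. Full-length exon 7-containing minigene mRNA measured by multiplex RT-qPCR with GAPDH, normalized and expressed relative to vehicle (modified ΔΔCt); EC1.5× is concentration giving 1.5-fold increase.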

Series [2] relates to Smn protein in SMA patient fibroblast cells (GM03813). The series can be described thus: Smn protein assay in cultured cells (SMN HTRF). It is filed as cell-based, human. The settings on record: SMA patient fibroblast cells, 48 hours; for EC1.5x for Smn protein expression: 7-point concentration curve, SMN HTRF, concentration producing 1.5 times Smn protein vs DMSO vehicle control; for maximum fold (Fold) increase of Smn protein: 7-point concentration data, fold relative to vehicle control. The method in brief: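 SMA patient fibroblasts (5,000/well, DMEM-10% FBS) treated 48 h at 37° C with 7-point, 3.16-fold compound series in triplicate; lysates read by SMN HTRF (665/620 nm ratio). Fold Smn increase over DMSO vehicle derived; EC1.5× is concentration giving 1.5-fold Smn, with maximum fold also reported.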
(In TR-FRET formats the signal depends on donor and acceptor labels being close together.)

The structures appear in SMILES notation.

Broadly, the melting point is the temperature, or range, at which the solid turns liquid. Molecule `Cc1nc2ccc(-c3cc(=O)n4cc(N5CCC(N(C)C)CC5)ccc4n3)cc2o1` [Compound 240, 7-[4-(dimethylamino)piperidin-1-yl]-2-(2-methyl-1,3-benzoxazol-6-yl)-4H-pyrido[1,2-a]pyrimidin-4-one] had a melting point of 206 to 210 °C. Further, in series [1], the EC (1.5-fold increase) was < 0.1 µM. Besides, in series [2], the “EC1.5x for Smn protein expression” value was “**** (an EC1.5x≤0.3 μM is indicated by four stars (****))”; the “maximum fold (Fold) increase of Smn protein” value (from here on “maximum fold (Fold) increase”) was “**** (a fold increase between >1.5 and ≤1.65 is indicated by four stars (****))”.

`COc1ccc(-c2cc(=O)n3cc(C4=CCNCC4)cc(C)c3n2)cc1F` [Compound 312, 2-(3-fluoro-4-methoxyphenyl)-9-methyl-7-(1,2,3,6-tetrahydropyridin-4-yl)-4H-pyrido[1,2-a]pyrimidin-4-one] gave a melting point of 211 to 215 °C. For the same molecule, the EC (1.5-fold increase) in series [1] is < 0.1 µM. Besides, in series [2], the “EC1.5x for Smn protein expression” value is recorded as “**** (an EC1.5x≤0.3 μM is indicated by four stars (****))”; the “maximum fold (Fold) increase” value was “**** (a fold increase between >1.5 and ≤1.65 is indicated by four stars (****))”.

Molecule `COc1ccc(-c2cc(=O)n3cc(C4=CCNCC4)ccc3n2)cc1OC` [Cpd 143, 2-(3,4-dimethoxyphenyl)-7-(1,2,3,6-tetrahydropyridin-4-yl)-4H-pyrido[1,2-a]pyrimidin-4-one] came in with a melting point of 196 to 198 °C. The EC (1.5-fold increase) in series [1] is < 0.1 µM. Also, in series [2], the “EC1.5x for Smn protein expression” value is given as “**** (an EC1.5x≤0.3 μM is indicated by four stars (****))” and the “maximum fold (Fold) increase” value is given as “***** (a fold increase >1.65 is indicated by five stars (*****))”.

Molecule `C[C@H]1CN(c2ccc3nc(-c4cnn(C)c4)cc(=O)n3c2)CCN1` [Cpd 191, 7-[(3S)-3-methylpiperazin-1-yl]-2-(1-methyl-1H-pyrazol-4-yl)-4H-pyrido[1,2-a]pyrimidin-4-one] had a melting point of 168 to 170 °C. In series [1], the EC (1.5-fold increase) lay in the range of 1 to 3 µM. Moreover, in series [2], the “EC1.5x for Smn protein expression” value was “** (an EC1.5× between >1 μM and ≤3 μM is indicated by two stars (**))”; the “maximum fold (Fold) increase” value was “**** (a fold increase between >1.5 and ≤1.65 is indicated by four stars (****))”.

`CCN1CCC(c2ccc3nc(-c4ccn5cc(C)nc5c4)cc(=O)n3c2)CC1` [Compound 560, 7-(1-ethylpiperidin-4-yl)-2-(2-methylimidazo[1,2-a]pyridin-7-yl)-4H-pyrido[1,2-a]pyrimidin-4-one] registered a melting point of 229 to 233 °C. Moreover, the EC (1.5-fold increase) in series [1] lay in the range of 1 to 3 µM. Also, the “maximum fold (Fold) increase” value in series [2] was “* (A maximum fold increase of ≤1.2 is indicated by one star (*))”.

On to `Cc1nc2ccc(-c3cc(=O)n4cc(N5C[C@H]6CN(C)C[C@H]6C5)ccc4n3)cc2o1` [Compound 267, 2-(2-methyl-1,3-benzoxazol-6-yl)-7-[(3aR,6aS)-5-methylhexahydropyrrolo[3,4-c]pyrrol-2(1H)-yl]-4H-pyrido[1,2-a]pyrimidin-4-one], for which the melting point is 200 to 204 °C. Besides, the EC (1.5-fold increase) in series [1] was < 0.1 µM. In addition, in series [2], the “EC1.5x for Smn protein expression” value was “**** (an EC1.5x≤0.3 μM is indicated by four stars (****))” and the “maximum fold (Fold) increase” value is “***** (a fold increase >1.65 is indicated by five stars (*****))”.

Molecule `Cc1cn(-c2cc(=O)n3cc(N4CCN[C@@H](C)C4)ccc3n2)cn1` [Compound 180, 2-(4-methyl-1H-imidazol-1-yl)-7-[(3S)-3-methylpiperazin-1-yl]-4H-pyrido[1,2-a]pyrimidin-4-one] displayed a melting point of 204 to 206 °C. Further, the EC (1.5-fold increase) in series [1] was in the range of 1 to 3 µM. Besides, in series [2], the “EC1.5x for Smn protein expression” value was “** (an EC1.5× between >1 μM and ≤3 μM is indicated by two stars (**))”; the “maximum fold (Fold) increase” value was “**** (a fold increase between >1.5 and ≤1.65 is indicated by four stars (****))”.

With `COc1ccc(-c2cc(=O)n3cc(N4CCCN(C)CC4)ccc3n2)cc1OC` [Compound 11, 2-(3,4-dimethoxyphenyl)-7-(4-methyl-1,4-diazepan-1-yl)-4H-pyrido[1,2-a]pyrimidin-4-one], the melting point was 166 to 168 °C. The EC (1.5-fold increase) in series [1] was 0.3 to 1 µM. For the same molecule, in series [2], the “maximum fold (Fold) increase” value was “*** (a fold increase between >1.35 and ≤1.5 is indicated by three stars (***))”.

`CCc1nc(C)cn2nc(-c3cc(=O)n4cc(C5CCN(C)CC5)ccc4n3)cc12` [Compound 657, 2-(4-ethyl-6-methylpyrazolo[1,5-a]pyrazin-2-yl)-7-(1-methylpiperidin-4-yl)-4H-pyrido[1,2-a]pyrimidin-4-one] had a melting point of 190 to 192 °C. Besides, the EC (1.5-fold increase) in series [1] is < 0.1 µM. Moreover, in series [2], the “EC1.5x for Smn protein expression” value is recorded as “**** (an EC1.5x≤0.3 μM is indicated by four stars (****))” and the “maximum fold (Fold) increase” value is listed as “***** (a fold increase >1.65 is indicated by five stars (*****))”.

In turn, `COc1ccc(-c2ccc3nc(C4CCN(C)CC4)cc(=O)n3c2)cc1F` [Compound 317, 7-(3-fluoro-4-methoxyphenyl)-2-(1-methylpiperidin-4-yl)-4H-pyrido[1,2-a]pyrimidin-4-one] had a melting point of 202 to 205 °C. Besides, in series [1], the EC (1.5-fold increase) was 0.3 to 1 µM. Besides, in series [2], the “EC1.5x for Smn protein expression” value is “** (an EC1.5× between >1 μM and ≤3 μM is indicated by two stars (**))”; the “maximum fold (Fold) increase” value was “**** (a fold increase between >1.5 and ≤1.65 is indicated by four stars (****))”.

With `Cn1cc2cc(-c3cc(=O)n4cc(C5CCN(CCO)CC5)ccc4n3)ccc2n1` [Compound 613, 7-[1-(2-hydroxyethyl)piperidin-4-yl]-2-(2-methyl-2H-indazol-5-yl)-4H-pyrido[1,2-a]pyrimidin-4-one], the melting point lay in the range of 170 to 172 °C. Further, the EC (1.5-fold increase) in series [1] is < 0.1 µM. Further, in series [2], the “EC1.5x for Smn protein expression” value was “**** (an EC1.5x≤0.3 μM is indicated by four stars (****))” and the “maximum fold (Fold) increase” value is “***** (a fold increase >1.65 is indicated by five stars (*****))”.

`COc1ccc(-c2cc(=O)n3cc(N4CCC(N(C)C)CC4)cc(C)c3n2)cc1OC` [Compound 261, 2-(3,4-dimethoxyphenyl)-7-[4-(dimethylamino)piperidin-1-yl]-9-methyl-4H-pyrido[1,2-a]pyrimidin-4-one] returned a melting point of 167 to 171 °C. Also, in series [1], the EC (1.5-fold increase) is < 0.1 µM. Also, in series [2], the “EC1.5x for Smn protein expression” value is listed as “**** (an EC1.5x≤0.3 μM is indicated by four stars (****))”; the “maximum fold (Fold) increase” value is “**** (a fold increase between >1.5 and ≤1.65 is indicated by four stars (****))”.

Molecule `Cc1cn2cc(-c3cc(=O)n4cc(C5CCN(CCO)CC5)ncc4n3)cc(Cl)c2n1` [Compound 599, 2-(8-chloro-2-methylimidazo[1,2-a]pyridin-6-yl)-7-[1-(2-hydroxyethyl)piperidin-4-yl]-4H-pyrazino[1,2-a]pyrimidin-4-one] returned a melting point of 266 to 268 °C. Besides, in series [1], the EC (1.5-fold increase) was < 0.1 µM. In series [2], the “EC1.5x for Smn protein expression” value is given as “**** (an EC1.5x≤0.3 μM is indicated by four stars (****))” and the “maximum fold (Fold) increase” value was “***** (a fold increase >1.65 is indicated by five stars (*****))”.

With `COc1ccc(-c2cc(=O)n3cc(N4C[C@H]5CCCN[C@H]5C4)ccc3n2)cc1F` [Compound 301, 2-(3-fluoro-4-methoxyphenyl)-7-[(4aR,7aR)-octahydro-6H-pyrrolo[3,4-b]pyridin-6-yl]-4H-pyrido[1,2-a]pyrimidin-4-one], the melting point is 194 to 201 °C. Also, the EC (1.5-fold increase) in series [1] lay within 1 to 3 µM. For the same molecule, the “maximum fold (Fold) increase” value in series [2] was “* (A maximum fold increase of ≤1.2 is indicated by one star (*))”.
